Legend:
[1] = target: Delta-type opioid receptor (Mus musculus, UniProt P32300); experiment: Displacement of [3H]DPDPE from delta opioid receptor in CD1 mouse brain membranes after 1 hr by liquid scintillation counting; type: cell membranes, Membrane
Mus musculus [2] = species on record: Mus musculus; experiment: Selectivity ratio of Ki for delta opioid receptor in CD1 mouse brain membranes to Ki for mu opioid receptor in CD1 mouse brain membranes; type: cell membranes
Cannabinoid receptor 1 = Cannabinoid receptor 1 (Mus musculus, UniProt P47746); experiment: Displacement of [3H]-CP-55940 from cannabinoid CB1 receptor in CD1 mouse brain membranes after 1 hr by liquid scintillation counting; type: cell membranes, Membrane
Cannabinoid receptor 2 = Cannabinoid receptor 2 (Mus musculus, UniProt P47936); experiment: Displacement of [3H]-CP-55940 from cannabinoid CB2 receptor in CD1 mouse spleen membranes after 1 hr by liquid scintillation counting; type: cell membranes, Membrane
Mu-type opioid receptor = Mu-type opioid receptor (Mus musculus, UniProt P42866); experiment: Displacement of [3H]DAMGO from mu opioid receptor in CD1 mouse brain membranes after 1 hr by liquid scintillation counting; type: cell membranes, Membrane
Mus musculus [3] = species on record: Mus musculus; experiment: Selectivity ratio of Ki for cannabinoid CB1 receptor in CD1 mouse brain membranes to Ki for cannabinoid CB2 receptor in CD1 mouse spleen membranes; type: cell membranes

Compound	Ki [1]	Ratio Ki (Mus musculus [2])	Ki (Cannabinoid receptor 1)	Ki (Cannabinoid receptor 2)	Ki (Mu-type opioid receptor)	Ratio Ki (Mus musculus [3])
CCCCC/C=C\CC/C=C/C=C/C(=O)NCC(C)C	7.7 µM	1.03	1.2 µM	0.55 µM	7.5 µM	2.18
CCCCCCC/C=C/C=C/C(=O)NCC(C)C	43 µM	5.24	2.6 µM	0.9 µM	8.2 µM	2.89
CC(C)CC(=O)OC/C=C\CCNC(=O)/C=C/C=C/C=C/c1cccs1	11 µM	0.27	5.6 µM	10.2 µM	41.5 µM	0.55
CCCCCCCCC/C=C/C=C/C(=O)NCC(C)C	22.5 µM	0.44	1.4 µM	1.17 µM	51 µM	1.2
CC(C)CNC(=O)/C=C/C=C/C=C/c1cccs1	25.5 µM	0.49	8.8 µM	8.25 µM	52 µM	1.07
O=C(/C=C/C=C/C=C/c1cccs1)N1CCCCC1	8 µM	0.63	4.1 µM	1.24 µM	12.8 µM	3.3
CCCCCCCCC/C=C/C=C/C(=O)N1CCCCC1	6.5 µM	1.13	6.7 µM	24 µM	5.75 µM	0.28
COc1cc([C@@H]2Oc3c(OC)cc(/C=C/C=O)cc3[C@H]2COC(=O)CC(C)C)ccc1O	3.8 µM	0.42	2.7 µM	4.2 µM	9 µM	0.64
CCCCC/C=C\CC/C=C/C=C/C(=O)N1CCCCC1	3.8 µM	0.51	0.8 µM	0.16 µM	7.4 µM	5
C=CC1OC1/C=C/C#CC#CC#CC (centres undefined)	> 50 µM	–	> 50 µM	> 50 µM	> 50 µM	–
O=C(/C=C/C=C/C=C/c1cccs1)N1C=CCCC1	11.5 µM	0.4	> 50 µM	13.5 µM	29 µM	–
CC(C)CCNC(=O)/C=C/C=C/C=C/c1cccs1	26.5 µM	3.27	2.2 µM	5 µM	8.1 µM	0.44

— ChEMBL document CHEMBL2440099, “N-Alkyl dien- and trienamides from the roots of Otanthus maritimus with binding affinity for opioid and cannabinoid receptors” (Bioorg Med Chem, 2013)
